Key:
5-LO [1] = target: T1, 5-LO (Rattus norvegicus, UniProt P12527); experiment: Test c) in vivo zymosan-induced LTB4 liberation in rat air pouch, oral compound; conditions: 3 h; test c)
T1 construct: an air pouch generated within the subcutaneous tissue of the back of male rats; endogenous in cells; host or cells: cells of the zymosan-inflamed air pouch of live male rats
T1 sequence (P12527 1-673): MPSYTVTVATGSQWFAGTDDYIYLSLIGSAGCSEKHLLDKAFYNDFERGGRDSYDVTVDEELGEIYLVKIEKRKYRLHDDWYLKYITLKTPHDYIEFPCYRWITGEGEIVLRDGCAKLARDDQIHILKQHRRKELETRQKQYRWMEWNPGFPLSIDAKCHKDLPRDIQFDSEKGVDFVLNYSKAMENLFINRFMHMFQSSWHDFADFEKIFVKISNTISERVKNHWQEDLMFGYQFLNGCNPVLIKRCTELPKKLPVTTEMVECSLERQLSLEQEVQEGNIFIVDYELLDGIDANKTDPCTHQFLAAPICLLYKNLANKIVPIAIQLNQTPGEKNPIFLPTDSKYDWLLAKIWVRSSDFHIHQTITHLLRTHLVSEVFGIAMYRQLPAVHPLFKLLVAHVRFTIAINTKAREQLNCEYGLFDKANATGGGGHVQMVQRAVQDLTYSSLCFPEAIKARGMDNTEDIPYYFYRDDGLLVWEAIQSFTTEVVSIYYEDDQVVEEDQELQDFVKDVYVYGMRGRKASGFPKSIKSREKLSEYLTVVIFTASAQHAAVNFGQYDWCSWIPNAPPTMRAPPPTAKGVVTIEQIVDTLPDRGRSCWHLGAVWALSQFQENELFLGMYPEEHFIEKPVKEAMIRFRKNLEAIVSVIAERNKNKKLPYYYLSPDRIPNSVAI
Method: c) An in vivo system involving measuring the effects of a test compound administered orally against the liberation of LTB4 induced by zymosan within an air pouch generated within the subcutaneous tissue of the back of male rats. The rats are anaesthetised and air pouches are formed by the injection of sterile air (20 ml). A further injection of air (10 ml) is similarly given after 3 days. At 6 days after the initial air injection the test compound is administered (usually orally as the suspension produced when a solution of the test compound in dimethylsulphoxide is added to hydroxypropylmethylcellulose), followed by the intrapouch injection of zymosan (1 ml of a 1% suspension in physiological saline). After 3 hours the rats are killed, the air pouches are lavaged with physiological saline, and the specific radioimmunoassay described above is used to assay LTB4 in the washings. This test provides an indication of inhibitory effects against 5-LO in an inflammatory milieu.

5-LO [2] = target: T2, 5-LO (Homo sapiens, UniProt P09917); experiment: Test a) in vitro inhibition of LTB4 formation in heparinised human blood challenged with A23187 (radioimmunoassay); type: cell-based
T2 construct: incubating a test compound with heparinised human blood; endogenous in cells; host or cells: blood cells in heparinised human whole blood
T2 sequence (P09917 1-674): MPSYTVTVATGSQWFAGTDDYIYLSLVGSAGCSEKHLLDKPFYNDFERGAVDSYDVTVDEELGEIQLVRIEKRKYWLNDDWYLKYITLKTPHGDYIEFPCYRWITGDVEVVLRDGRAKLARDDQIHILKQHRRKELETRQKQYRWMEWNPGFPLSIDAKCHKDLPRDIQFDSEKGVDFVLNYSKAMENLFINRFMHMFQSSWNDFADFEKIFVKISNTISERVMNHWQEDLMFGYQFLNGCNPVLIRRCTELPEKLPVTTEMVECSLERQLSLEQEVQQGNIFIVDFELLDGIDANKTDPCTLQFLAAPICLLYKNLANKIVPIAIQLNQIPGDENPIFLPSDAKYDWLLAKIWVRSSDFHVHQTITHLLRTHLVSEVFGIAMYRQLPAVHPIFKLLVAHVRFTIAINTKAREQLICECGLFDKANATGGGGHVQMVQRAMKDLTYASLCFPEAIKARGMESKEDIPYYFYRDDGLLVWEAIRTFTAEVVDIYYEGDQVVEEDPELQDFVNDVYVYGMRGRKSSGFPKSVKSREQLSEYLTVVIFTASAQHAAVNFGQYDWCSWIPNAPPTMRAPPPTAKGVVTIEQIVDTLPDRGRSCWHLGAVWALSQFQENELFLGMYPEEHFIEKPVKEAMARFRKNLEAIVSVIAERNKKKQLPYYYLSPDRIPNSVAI
Method: a) An in vitro assay system involving incubating a test compound with heparinised human blood, prior to challenge with the calcium ionophore A23187 and then indirectly measuring the inhibitory effects on 5-LO by assaying the amount of LTB4 using specific radioimmunoassays described by Carey and Forder (Prostaglandins, Leukotrienes Med., 1986, 22, 57; Prostaglandins, 1984, 28, 666; Brit. J. Pharmacol., 1985, 84, 34P) which involve the use of a protein-LTB4 conjugate produced using the procedure of Young et alia (Prostaglandins, 1983, 26(4), 605-613). The effects of a test compound on the enzyme cyclooxygenase (which is involved in the alternative metabolic pathway for arachidonic acid and gives rise to prostaglandins, thromboxanes and related metabolites) may be measured at the same time using the specific radioimmunoassay for thromboxane B2 (TxB2) described by Carey and Forder (see above). This test provides an indication of the effects of a test compound against 5-LO and also cyclooxygenase in the presence of blood cells and proteins. It permits the selectivity of the inhibitory effect on 5-LO or cyclooxygenase to be assessed.

ED50 (5-LO [1])	IC50 (5-LO [2])	SMILES
1.5 mg/kg	1000 nM	COC1(c2cccc(Sc3ccc(NS(C)(=O)=O)c(Cl)c3)c2)CCOCC1 [N-{2-chloro-4-[3-(4-methoxytetrahydropyran-4-yl)phenylthio]phenyl)-methanesulphonamide]
1 mg/kg	90 nM	COC1(c2cccc(Sc3ccc(N(C)S(C)(=O)=O)cc3Cl)c2)CCOCC1 [N-{3-chloro-4-[3-(4-methoxytetrahydropyran-4-yl)phenylthio]phenyl}-N-methylmethanesulphonamide]

Source: US5236948A, “Sulphonamide derivatives” (Imperial Chemical Industries PLC, priority 1991, dated 1993)
